Test results reported in patent US20230355602A1, “TREATMENT AND/OR PREVENTION OF A VIRAL INFECTION” (priority 2020, published 2023).

How the values were obtained:
CHIKV = experiment: Chikungunya virus assay in Huh7 cells (viral titer); format: cell-based
[1] = test system: Dengue virus (serotypes 1, 2, 3 or 4); experiment: Dengue virus assay in Huh7 cells (viral titer); format: cell-based
Zika virus = Zika virus assay in Huh7 cells (viral titer); format: cell-based
clinical = settings: human, in vivo
[2] = test system: SARS-CoV-2 (hCoV-19/Singapore/10/2020); experiment: Dose-dependent inhibition assay with plaque assay titration in Vero E6 cells; format: cell-based
in vitro [3] = format: cell-based; settings: human
Protocol: (§1) 12k cells (A549) per well in a 96-well plate. The compounds are added on the next day. 48 hrs treatment. 3-fold serial dilution for ASLAN 003 starting from 10 μM.

A549 cells = experiment: in vitro; format: cell-based; settings: human, 48 h
Protocol: as §1

SARS-CoV-2-Nluc viruses = experiment: microbe, parasite or virus in culture; format: cell-based
in vitro [4] = format: cell-based; settings: African green monkey
Protocol: Vero E6 cells were treated with the above compounds ata range of concentrations (0.0001, 0.001, 0.01, 1,10, 30, 50, and 100 μM) and incubated for 4 days. After incubation, the media was removed from the plates and washed once with PBS before addition of alamarBlue Cell Viability Reagent (Thermo Fisher Scientific) diluted 1:10 in media with 2% FCS. Fluorescence was detected after 2.5 h incubation at an excitation wavelength of 570 nm and an emission wavelength of 600 nm on an Infinite 200 Pro multiplate reader (Tecan). Data obtained from compound-treated cells and vehicle-treated cells were normalised against those obtained from untreated cells.

[5] = human, in vivo
[6] = Severe acute respiratory syndrome coronavirus 2, Vero C1008, 96 h

COc1cccc(-c2cc(F)c(Nc3ncccc3C(=O)O)c(F)c2)c1 [ASLAN003, 2-(3,5-difluoro-3′-methoxybiphenyl-4-ylamino) nicotinic acid]
efficacy (potency) against Chikugunya (CHIKV): sub-micromolar potency
efficacy (potency) against Dengue [1]: sub-micromolar potency
efficacy (potency) against Zika (Zika virus): sub-micromolar potency
half-life (clinical): 18 h
EC50 [2, 6]: 1.42 nM
EC90 [2, 6]: 3.88 nM
inhibition of SARS-CoV-2 in Vero E6 cells (viral titre) ([2]; treated post virus infection, 0.0001 to 100 μM): Dosage dependent inhibition
IC50 at 48 h (in vitro [3]): > 10000 nM
IC50 (A549 cells): > 10000 nM
change in A549 cell viability (A549 cells): no change in A549 cell viability
efficacy (potency) against SARS-CoV-2 (SARS-CoV-2-Nluc viruses): sub-micromolar potency
IC50 (SARS-CoV-2-Nluc viruses; Severe acute respiratory syndrome coronavirus 2, 48 h, read-out: SARS-COV-2 Reporter Assay (IC50, μM)): 0.812 µM
CC50 at 4 days (in vitro [4]): 87200 nM
PK profiles in Asian and Caucasian patients [5]: equivalent
safety and tolerability, liver enzyme rises [5]: safe and well-tolerated with no evidence of significant liver enzyme rises
time until full exposure is achieved [5]: ≤ 24 h
